Assay results reported in US20260210856A1, “CONJUGATED OLIGOELECTROLYTES WITH BORON-DIPYRROMETHENE CORES AND METHODS THEREOF” (National University of Singapore, priority 2022, published 2026).

Test: FLIM of stained GUVs with varying compositions
Assay type: physicochemical
Settings: 1 μM
Source text: FLIM is a time-resolved method used to obtain information on the emission decay of a fluorophore in different cellular environments. Being independent of parameters such as local dye concentration, absorption profile, and excitation intensity, FLIM is sensitive to changes in the fluorophore itself relative to intensity-based measurements. Accordingly, we first used GUV model systems with a well-defined composition to measure the lifetime of the probe in environments of known lipid packing. For this purpose, use used compositions of, in order of increased membrane tension, DOPC, DOPC with cholesterol (Chol), sphyngomyelin (SM) and SM with Chol. This series of GUVs allows us to examine to what extent τw of intercalated COE-BYPhOC4 is responsive to different levels of membrane tension.
GUVs were thus first stained with 1 μM COE-BYPhOC4 and were imaged via conventional FLIM. […] All the lifetimes measured are predominantly described by a mono-exponential fit. […]

τw (DOPC GUVs): 1.6±0.2 ns
τw (SM/Chol vesicles): 2.8±0.3 ns
SMILES: CCCCOc1ccc(C2=C3C(C)=C(c4ccc(/C=C/c5cc(OCCCCCC[N+](C)(C)C)c(OCCCCCC[N+](C)(C)C)c(OCCCCCC[N+](C)(C)C)c5)cc4)C(C)=[N+]3[B-](F)(F)n3c(C)c(-c4ccc(/C=C/c5cc(OCCCCCC[N+](C)(C)C)c(OCCCCCC[N+](C)(C)C)c(OCCCCCC[N+](C)(C)C)c5)cc4)c(C)c32)cc1.[I-].[I-].[I-].[I-].[I-].[I-] [COE-BYPhOC4]
